Legend:
Assay type in all cases: in vivo, Wistar rats
[1] = system: apomorphine-dependent erection; experiment: Apomorphine-dependent erection in low-potency rats; conditions: compound 5 x 10 mg/kg intraperitoneally every 48 hours + apomorphine 0.1 mg/kg subcutaneously; 20 minutes monitoring; one value for the two compounds of the line
Source text: One of the mechanisms regulating the sexual function of mammals is associated with functioning of the dopaminergic system of the brain. It is well known that a non-selective D1/D2 agonist apomorphine in low doses causes penile erection in rodents (Giuliano F., Allard J. Dopamine and male sexual function. Eur. Urol., 2001, 40 (6), 601-608; Giuliano F., Allard J., Rampin O. et. al. Pro-erectile effect of systemic apomorphine: existence of a spinal site action. J. Urol., 2002, 167 (1), 402-406; Brien S. E., Smallegange C., Gofton W. T., et. al. Development of a rat model of sexual performance anxiety: effect of behavioral and pharmacological hyperadrenergic stimulation on apomorphine-induced erections. Int. J. Impot. Res., 2002, 14 (2), 107-115.). In this connection, we have studied the effects of the compounds according to the invention on apomorphine-dependent erection in rats.
Nine groups of adult male Wistar rats weighing 350-450 g maintained at the normal (not inverted) light cycle were used in the experiments. To study the effect of the compounds on the sexual function, low-potency animals with a single erection were selected. Control group No. 1 (n=7) was composed of animals not injected with the compounds according to the invention. The animals of groups Nos. 2-9 (n=7) were injected with one of the compounds according to the invention selected from the group of compounds 2, 8, 9, 15, 19, 25, 31, 36, intraperitoneally in a course of 5 injections at a dose of 10 mg/kg with an interval between the injections 48 hours. Apomorphine was dissolved in 0.1% aqueous solution of ascorbic acid and then was injected to all animal subcutaneously at a dose of 0.1 mg/kg during 24-28 hours after the last injection of the compounds according to the invention. The monitoring of sexual activity was made individually for each animal immediately after the administration of apomorphine; the monitoring time was 20 minutes. The following indices were registered: the time of beginning of the first erection, time intervals between the erections, the number of erections for the entire period of observation.
The statistical analysis of the results was made using T-test and ξ-square test. The results are given in Table 3 as means±standard error of means.

[2] = system: nitric oxide synthase (NOS); experiment: Nitric oxide synthase activity in brain regions, radiometric [3H]L-citrulline method; conditions: 3 x 20 mg/kg intramuscularly
Procedure, shortened: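 Rat cortex, hippocampus, mesencephalon, striatum, brainstem, hypothalamus and cerebellum were homogenized in 20 mM HEPES pH 7.5, and the 11000 g supernatant was incubated 15-60 min at 37 °C with [3H]L-arginine, 0.2 mM CaCl2, FAD, FMN, NADPH and BH4. [3H]L-citrulline was counted after Dowex removal of arginine. Ca2+-dependent/independent activity was split using EDTA ± L-NAME, per mg Bradford protein.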

[3] = system: physical dependence from morphine (morphine abstinence); experiment: Morphine abstinence syndrome, signs scored in the open field test; conditions: Morphine − (morphine + compound); compound 3 x 20 mg/kg intramuscularly; one value for the three compounds
[4] = system: nitrites and nitrates (NOx-); experiment: Measurement of nitrates/nitrites (NOx-) in brain regions after the morphine abstinence experiment; conditions: 3 x 20 mg/kg intramuscularly
Procedure, shortened: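 Rat brain regions homogenized in 20 mM HEPES pH 7.5 at 4 °C; deproteinized supernatants treated with nitrate reductase, 25 μM NADPH, 25 μM FAD (37 °C, 30 min), then DAN in acid; naphthotriazole fluorescence (ex 365/em 405 nm) against sodium nitrate standard, expressed as nmol/mg protein (Bradford).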

[5] = Groups Nos. 3-14, compound without morphine, one value for all 12 compounds
[6] = Morphine + compound, one value for the three compounds

O=c1[nH][nH]c(=O)c2nccnc12.[Li] [Compound 25, lithium salt of pyrazino[2,3-d]-6H-pyridazine-5,8-dione]
Latent period of first erection [1]: 5.24 ± 0.19 min
Number of erection for the entire period of observation [1]: 3.29 ± 0.27
Time between 1st and 2nd erections [1]: 3.75 ± 0.64 min
Time between 3rd and 2nd erections [1]: 5.12 ± 0.87 min

Nc1ncnc2c(=O)n([C@@H]3O[C@H](CO)[C@@H](O)[C@H]3O)[nH]c(=O)c12.[Na] [Compound 31, sodium salt of 4-amino-7-(β-D-ribofuranosile)pyrimido[4,5-d]-6H-pyridazine-5,8-dione]
Latent period of first erection [1]: 5.12 ± 0.24 min
Number of erection for the entire period of observation [1]: 3.32 ± 0.31
Time between 1st and 2nd erections [1]: 3.34 ± 0.69 min
Time between 3rd and 2nd erections [1]: 5.02 ± 1.01 min

O=c1[nH]n([C@@H]2O[C@H](CO)[C@@H](O)[C@H]2O)c(=O)c2ccccc12.[Na] [Compound 9, sodium salt of 2-(β-D-ribofuranosile)benzo[d]-3H-pyridazine-1,4-dione]
Latent period of first erection [1]: 5.09 ± 0.27 min
Number of erection for the entire period of observation [1]: 3.24 ± 0.39
Time between 1st and 2nd erections [1]: 3.87 ± 0.59 min
Time between 3rd and 2nd erections [1]: 5.19 ± 0.78 min

Nc1cccc2c(=O)[nH][nH]c(=O)c12.[Na] [Compound 15, sodium salt of 5-amino-benzo[d]-3H-pyridazine-1,4-dione]
Latent period of first erection [1]: 5.09 ± 0.27 min
Number of erection for the entire period of observation [1]: 3.24 ± 0.39
Time between 1st and 2nd erections [1]: 3.87 ± 0.59 min
Time between 3rd and 2nd erections [1]: 5.19 ± 0.78 min

Nc1ccnc2c(=O)n([C@@H]3O[C@H](CO)[C@@H](O)[C@H]3O)[nH]c(=O)c12.[Na] [Compound 2, sodium salt of 4-amino-7-(β-D-ribofuranosile)pyrido[2,3-d]-6H-pyridazine-5,8-dione]
Latent period of first erection [1]: 5.21 ± 0.30 min
Number of erection for the entire period of observation [1]: 3.13 ± 0.35
Time between 1st and 2nd erections [1]: 3.94 ± 0.60 min
Time between 3rd and 2nd erections [1]: 5.52 ± 1.14 min

Nc1ncc2c(=O)[nH][nH]c(=O)c2n1.[Na] [Compound 36, sodium salt of 2-amino-pyrimido[4,5-d]-6H-pyridazine-5,8-dione]
Latent period of first erection [1]: 5.12 ± 0.24 min
Number of erection for the entire period of observation [1]: 3.32 ± 0.31
Time between 1st and 2nd erections [1]: 3.34 ± 0.69 min
Time between 3rd and 2nd erections [1]: 5.02 ± 1.01 min

O=c1[nH][nH]c(=O)c2ncccc12.[K] [Compound 8, potassium salt of pyrido [2,3-d]-6H-pyridazine-5,8-dione]
Latent period of first erection [1]: 5.21 ± 0.30 min
Number of erection for the entire period of observation [1]: 3.13 ± 0.35
Time between 1st and 2nd erections [1]: 3.94 ± 0.60 min
Time between 3rd and 2nd erections [1]: 5.52 ± 1.14 min

O=c1[nH]n([C@@H]2O[C@H](CO)[C@@H](O)[C@H]2O)c(=O)c2nccnc12.[Na] [Compound 19, sodium salt of 7-(β-D-ribofuranosile)pyrazino[2,3-d]-6H-pyridazine-5,8-dione]
Latent period of first erection [1]: 5.24 ± 0.19 min
Number of erection for the entire period of observation [1]: 3.29 ± 0.27
Time between 1st and 2nd erections [1]: 3.75 ± 0.64 min
Time between 3rd and 2nd erections [1]: 5.12 ± 0.87 min

O=c1[nH]n([C@@H]2O[C@H](CO)[C@@H](O)[C@H]2O)c(=O)c2nccc(O)c12.[Na] [Compound 4, isodium salt of 4-hydroxy-7-(β-D-ribofuranosile)pyrido[2,3-d]-6H-pyridazine-5,8-dione]
Activity of NOS, hippocampus [2, 5]: 3.09 ± 0.16 nmol/min/mg of protein
Activity of NOS, hypothalamus [2, 5]: 5.45 ± 0.24 nmol/min/mg of protein
Activity of NOS, midbrain [2, 5]: 2.60 ± 0.29 nmol/min/mg of protein
Activity of NOS, striatum [2, 5]: 1.26 ± 0.08 nmol/min/mg of protein
Activity of NOS, hippocampus [2, 6]: 2.70 ± 0.14 nmol/min/mg of protein
Activity of NOS, hypothalamus [2, 6]: 5.26 ± 0.28 nmol/min/mg of protein
Activity of NOS, midbrain [2, 6]: 1.83 ± 0.23 nmol/min/mg of protein
Activity of NOS, striatum [2, 6]: 1.24 ± 0.08 nmol/min/mg of protein
Authentic differences (ξ-square criterion) in appearance of signs of abstinence: <<Wet dog>> shakes [3]: 1.0000
Authentic differences (ξ-square criterion) in appearance of signs of abstinence: Aggression [3]: 0.8327
Authentic differences (ξ-square criterion) in appearance of signs of abstinence: Convulsions [3]: 0.7821
Authentic differences (ξ-square criterion) in appearance of signs of abstinence: Diarrhea [3]: 0.0046
Authentic differences (ξ-square criterion) in appearance of signs of abstinence: Dyspnea [3]: 0.0722
Authentic differences (ξ-square criterion) in appearance of signs of abstinence: Forelimb jogging [3]: 0.7821
Authentic differences (ξ-square criterion) in appearance of signs of abstinence: Grit with teeth [3]: 0.7144
Authentic differences (ξ-square criterion) in appearance of signs of abstinence: Mastication [3]: 0.1888
Authentic differences (ξ-square criterion) in appearance of signs of abstinence: Piloerection [3]: 0.1847
Authentic differences (ξ-square criterion) in appearance of signs of abstinence: Ptosis [3]: 0.0201
Authentic differences (ξ-square criterion) in appearance of signs of abstinence: Rhinorrhea [3]: 0.3017
Authentic differences (ξ-square criterion) in appearance of signs of abstinence: Squeak when touched [3]: 0.1888
Nitrites, brainstem [4, 5]: 6.31 ± 0.58 nmol/mg of protein
Nitrites, cerebellum [4, 5]: 6.66 ± 0.63 nmol/mg of protein
Nitrites, cerebral cortex [4, 5]: 4.31 ± 0.37 nmol/mg of protein
Nitrites, hippocampus [4, 5]: 6.47 ± 0.72 nmol/mg of protein
Nitrites, hypothalamus [4, 5]: 6.77 ± 0.83 nmol/mg of protein
Nitrites, midbrain [4, 5]: 6.65 ± 0.70 nmol/mg of protein
Nitrites, striatum [4, 5]: 6.11 ± 0.29 nmol/mg of protein
Nitrites, brainstem [4, 6]: 6.57 ± 0.72 nmol/mg of protein
Nitrites, cerebellum [4, 6]: 5.46 ± 0.44 nmol/mg of protein
Nitrites, cerebral cortex [4, 6]: 4.72 ± 0.37 nmol/mg of protein
Nitrites, hippocampus [4, 6]: 5.44 ± 0.43 nmol/mg of protein
Nitrites, hypothalamus [4, 6]: 6.57 ± 0.88 nmol/mg of protein
Nitrites, midbrain [4, 6]: 5.50 ± 0.48 nmol/mg of protein
Nitrites, striatum [4, 6]: 3.57 ± 0.42 nmol/mg of protein

From patent US7776833B2, “Use of cyclic bioisosters of purine system derivatives for treating diseases produced by disorders of niterergic and dopaminergic systems” (priority 2003, dated 2010)
